In publication PMC7132332 (Biochemistry, 2020):

Target: T1, WecA (Escherichia coli, UniProt P0AC78)
T1 sequence (P0AC78 1-367): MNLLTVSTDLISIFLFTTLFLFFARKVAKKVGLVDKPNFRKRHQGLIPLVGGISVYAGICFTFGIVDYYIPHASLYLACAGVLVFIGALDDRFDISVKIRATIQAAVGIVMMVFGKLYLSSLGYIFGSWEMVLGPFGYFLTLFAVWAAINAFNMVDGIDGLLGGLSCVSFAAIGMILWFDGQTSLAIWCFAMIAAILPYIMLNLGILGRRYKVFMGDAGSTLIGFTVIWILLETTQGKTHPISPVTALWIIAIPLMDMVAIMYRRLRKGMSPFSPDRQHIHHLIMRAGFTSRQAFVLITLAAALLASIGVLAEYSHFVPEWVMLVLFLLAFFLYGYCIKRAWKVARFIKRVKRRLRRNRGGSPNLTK
Experiment: HPLC transferase assay with cell envelope fraction
Type: biochemical
Conditions: 2CN- or NBD-B(4Z)P; overexpressed recombinant WecA; bicine pH 8.5, MgCl2, cholate, 37 °C

CC(=O)N[C@H]1[C@@H](OP(=O)(O)OP(=O)(O)OC[C@H]2O[C@@H](n3ccc(=O)[nH]c3=O)[C@H](O)[C@@H]2O)O[C@H](CO)[C@@H](O)[C@@H]1O [UDP-GlcNAc]
HPLC transferase assay with cell envelope fraction: able to convert fl-BPs with far lower concentrations of UDP-GlcNAc
